Source: ChEMBL document CHEMBL1133973, “Asymmetric synthesis of BB-3497--a potent peptide deformylase inhibitor” (Bioorg Med Chem Lett, 2001)

What was measured:
[1] = target: T1, Interstitial collagenase (Homo sapiens, UniProt P03956); assay: Inhibition of human Matrix metalloprotease-1
T1 sequence (P03956 whole entry): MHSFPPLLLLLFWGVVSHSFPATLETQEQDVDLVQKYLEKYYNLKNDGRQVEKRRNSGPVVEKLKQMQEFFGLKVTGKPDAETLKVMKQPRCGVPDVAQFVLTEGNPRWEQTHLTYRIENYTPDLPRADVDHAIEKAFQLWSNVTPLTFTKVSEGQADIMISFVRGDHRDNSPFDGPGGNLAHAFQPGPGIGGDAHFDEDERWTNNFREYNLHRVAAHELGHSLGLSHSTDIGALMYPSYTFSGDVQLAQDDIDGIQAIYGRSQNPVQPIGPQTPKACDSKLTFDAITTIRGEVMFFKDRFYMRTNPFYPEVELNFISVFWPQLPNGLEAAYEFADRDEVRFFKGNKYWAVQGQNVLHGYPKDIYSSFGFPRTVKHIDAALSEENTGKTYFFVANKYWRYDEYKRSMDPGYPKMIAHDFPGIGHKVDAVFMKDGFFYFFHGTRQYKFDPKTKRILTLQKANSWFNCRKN

[2] = target: T2, Matrilysin (Homo sapiens, UniProt P09237); assay: (§1) Inhibition of Matrix metalloprotease-7
T2 sequence (P09237 whole entry): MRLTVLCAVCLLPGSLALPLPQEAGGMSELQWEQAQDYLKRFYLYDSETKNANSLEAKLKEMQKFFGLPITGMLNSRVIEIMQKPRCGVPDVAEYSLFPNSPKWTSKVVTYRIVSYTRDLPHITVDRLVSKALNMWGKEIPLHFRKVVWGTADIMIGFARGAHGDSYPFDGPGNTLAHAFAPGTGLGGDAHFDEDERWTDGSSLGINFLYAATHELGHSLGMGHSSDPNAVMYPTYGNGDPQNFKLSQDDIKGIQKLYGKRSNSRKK

[3] = target: Stromelysin-1 (Homo sapiens, UniProt P08254); assay: Inhibition of Matrix metalloprotease-3
Chain of Stromelysin-1 (P08254 whole entry): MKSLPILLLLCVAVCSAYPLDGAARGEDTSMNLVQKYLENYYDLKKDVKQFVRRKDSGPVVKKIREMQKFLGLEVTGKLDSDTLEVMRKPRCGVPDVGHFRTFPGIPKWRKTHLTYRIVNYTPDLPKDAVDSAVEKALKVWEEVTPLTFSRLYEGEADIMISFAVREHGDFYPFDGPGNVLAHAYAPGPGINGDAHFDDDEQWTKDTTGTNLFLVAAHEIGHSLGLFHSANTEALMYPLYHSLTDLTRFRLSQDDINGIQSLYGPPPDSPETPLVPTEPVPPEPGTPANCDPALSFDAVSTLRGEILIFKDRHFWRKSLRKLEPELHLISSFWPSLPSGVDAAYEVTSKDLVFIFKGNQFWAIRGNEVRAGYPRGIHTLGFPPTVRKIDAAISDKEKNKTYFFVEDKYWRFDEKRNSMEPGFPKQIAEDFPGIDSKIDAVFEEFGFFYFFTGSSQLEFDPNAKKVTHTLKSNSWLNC

[4] = target: 72 kDa type IV collagenase (Homo sapiens, UniProt P08253); assay: Inhibition of Matrix metalloprotease-2
Chain of 72 kDa type IV collagenase (P08253 whole entry): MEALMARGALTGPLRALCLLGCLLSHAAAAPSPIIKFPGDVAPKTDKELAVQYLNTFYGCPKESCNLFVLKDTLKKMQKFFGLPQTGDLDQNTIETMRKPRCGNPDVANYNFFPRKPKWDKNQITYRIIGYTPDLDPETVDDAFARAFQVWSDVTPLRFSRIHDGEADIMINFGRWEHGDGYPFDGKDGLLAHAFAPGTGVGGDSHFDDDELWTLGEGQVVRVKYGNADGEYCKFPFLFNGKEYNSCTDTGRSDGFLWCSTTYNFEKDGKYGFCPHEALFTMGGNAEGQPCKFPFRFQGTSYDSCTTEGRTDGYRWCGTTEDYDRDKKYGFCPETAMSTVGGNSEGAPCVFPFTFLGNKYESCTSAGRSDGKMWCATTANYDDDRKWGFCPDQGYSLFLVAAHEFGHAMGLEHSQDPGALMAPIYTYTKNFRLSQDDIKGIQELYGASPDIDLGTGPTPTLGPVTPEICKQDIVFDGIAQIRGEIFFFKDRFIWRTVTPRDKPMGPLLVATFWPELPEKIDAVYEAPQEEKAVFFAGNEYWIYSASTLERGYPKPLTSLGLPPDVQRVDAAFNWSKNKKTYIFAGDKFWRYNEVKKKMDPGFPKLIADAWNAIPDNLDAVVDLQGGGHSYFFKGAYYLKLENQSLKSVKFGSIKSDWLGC

[5] = target: Neprilysin (Homo sapiens, UniProt P08473); assay: The compound was evaluated in vitro for the inhibition of Neutral endopeptidase
Chain of Neprilysin (P08473 whole entry): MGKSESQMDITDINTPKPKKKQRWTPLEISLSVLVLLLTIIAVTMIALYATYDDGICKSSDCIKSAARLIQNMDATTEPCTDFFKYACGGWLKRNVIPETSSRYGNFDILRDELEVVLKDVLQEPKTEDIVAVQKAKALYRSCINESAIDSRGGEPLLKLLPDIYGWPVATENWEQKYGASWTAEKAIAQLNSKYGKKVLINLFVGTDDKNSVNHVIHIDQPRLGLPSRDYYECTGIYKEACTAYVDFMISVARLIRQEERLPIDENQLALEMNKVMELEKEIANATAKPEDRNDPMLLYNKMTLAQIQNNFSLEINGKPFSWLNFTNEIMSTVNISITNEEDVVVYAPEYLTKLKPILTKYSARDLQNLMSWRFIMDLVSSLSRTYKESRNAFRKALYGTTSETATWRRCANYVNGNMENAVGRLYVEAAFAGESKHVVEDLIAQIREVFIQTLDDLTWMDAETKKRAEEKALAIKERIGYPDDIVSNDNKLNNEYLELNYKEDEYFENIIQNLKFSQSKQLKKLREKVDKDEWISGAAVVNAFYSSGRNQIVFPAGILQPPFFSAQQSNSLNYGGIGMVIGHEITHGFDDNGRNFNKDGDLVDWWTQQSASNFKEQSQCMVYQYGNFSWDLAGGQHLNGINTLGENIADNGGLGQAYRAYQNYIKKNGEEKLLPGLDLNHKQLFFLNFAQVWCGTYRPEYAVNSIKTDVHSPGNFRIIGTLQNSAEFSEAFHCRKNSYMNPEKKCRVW

[6] = target: Angiotensin-converting enzyme (Homo sapiens, UniProt P12821); assay: Compound was tested for its inhibitory activity against Angiotensin I converting enzyme
Chain of Angiotensin-converting enzyme (P12821 whole entry): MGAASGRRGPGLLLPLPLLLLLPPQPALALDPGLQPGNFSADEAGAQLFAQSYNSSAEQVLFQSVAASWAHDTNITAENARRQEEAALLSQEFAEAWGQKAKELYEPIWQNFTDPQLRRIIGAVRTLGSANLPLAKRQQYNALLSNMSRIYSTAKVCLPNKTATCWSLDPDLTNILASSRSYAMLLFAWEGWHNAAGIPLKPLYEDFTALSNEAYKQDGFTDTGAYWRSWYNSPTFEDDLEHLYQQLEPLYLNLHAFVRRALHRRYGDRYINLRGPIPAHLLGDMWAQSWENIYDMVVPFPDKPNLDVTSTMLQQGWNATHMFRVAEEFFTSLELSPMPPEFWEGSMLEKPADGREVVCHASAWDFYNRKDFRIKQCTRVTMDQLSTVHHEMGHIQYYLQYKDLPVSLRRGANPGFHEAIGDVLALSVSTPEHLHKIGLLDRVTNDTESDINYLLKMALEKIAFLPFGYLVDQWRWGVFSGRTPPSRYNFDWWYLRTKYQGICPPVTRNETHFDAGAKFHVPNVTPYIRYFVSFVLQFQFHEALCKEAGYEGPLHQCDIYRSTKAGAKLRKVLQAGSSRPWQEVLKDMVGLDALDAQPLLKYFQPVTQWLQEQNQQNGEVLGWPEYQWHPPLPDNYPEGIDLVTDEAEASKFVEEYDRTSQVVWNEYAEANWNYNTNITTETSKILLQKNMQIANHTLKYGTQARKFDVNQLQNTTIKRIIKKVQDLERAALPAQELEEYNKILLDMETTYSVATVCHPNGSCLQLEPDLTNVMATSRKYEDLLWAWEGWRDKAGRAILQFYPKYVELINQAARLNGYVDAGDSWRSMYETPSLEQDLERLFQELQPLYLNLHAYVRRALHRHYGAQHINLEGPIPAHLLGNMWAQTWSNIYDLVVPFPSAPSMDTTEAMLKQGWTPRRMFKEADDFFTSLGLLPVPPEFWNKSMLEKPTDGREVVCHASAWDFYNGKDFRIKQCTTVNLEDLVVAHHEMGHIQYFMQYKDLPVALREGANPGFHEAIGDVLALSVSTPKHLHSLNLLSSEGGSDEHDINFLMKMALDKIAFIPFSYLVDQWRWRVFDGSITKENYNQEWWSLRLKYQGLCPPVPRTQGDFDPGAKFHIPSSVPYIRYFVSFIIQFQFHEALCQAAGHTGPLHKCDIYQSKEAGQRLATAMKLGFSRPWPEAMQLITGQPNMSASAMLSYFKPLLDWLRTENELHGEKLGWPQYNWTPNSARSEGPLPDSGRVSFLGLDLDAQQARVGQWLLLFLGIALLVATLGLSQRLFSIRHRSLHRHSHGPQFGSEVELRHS

[7] = target: T3, Matrilysin (Homo sapiens) (UniProt P09237); assay: as §1; details: concentration not given here
T3 sequence (whole entry): T2 sequence (P09237 whole entry)

## CCCCC(CN(O)C=O)C(=O)N[C@H](C(=O)N(C)C)C(C)(C)C (stereo partly specified)
[1]
  IC50: > 100 µM
[2]
  IC50: > 100 µM
[3]
  IC50: > 100 µM
[4]
  IC50: > 100 µM

## CCCC[C@H](CN(O)C=O)C(=O)N[C@H](C(=O)N(C)C)C(C)(C)C
[1]
  IC50: 2 µM
[2]
  IC50: > 100 µM
[3]
  IC50: > 100 µM
[5]
  IC50: 50 µM
[6]
  IC50: > 100 µM
[4]
  IC50: 15 µM

## CCCCC[C@H](CC(=O)NO)C(=O)N[C@H](C(=O)N1CCC[C@H]1CO)C(C)C [ACTINONIN]
[1]
  IC50: 1.1 µM
[7]
  inhibition: 60%
[3]
  IC50: 6 µM
[5]
  IC50: 6.7 µM
[6]
  IC50: > 100 µM
[4]
  IC50: 3 µM
